Read-outs that look alike come from different tables or passages of the source.
How the values were obtained:
PSP patients [1] = assay: Phase 2/3 davunetide vs placebo trial in PSP, re-evaluated separating males and females; assay type: in vivo, human
Method: In this example we used results of a clinical trial performed as described in Boxer et al. Shortly, in a double blind, parallel group, phase 2/3 trial, participants were randomly assigned with permuted blocks in a 1:1 ratio to davunetide (NAP, having amino acid sequence […] set forth as SEQ ID NO: 1, 30 mg twice daily, intranasally) or placebo for 52 weeks at 48 centers in Australia, Canada, France, Germany, the UK, and the USA. Participants met the modified Neuroprotection and Natural History in Parkinson Plus Syndrome study criteria for PSP. Primary endpoints were the change from baseline in PSP Rating Scale (PSPRS, 28 items, 6 categories, 0=normal, 100=most disability) and Schwab and England Activities of Daily Living scale (SEADL, 11-point rating scale, 0=vegetative, 100%/=completely independent, 10% increments) at up to 52 weeks. Data collection was at week 0, 6, 13, 26, 39 and 52. All participants and study personnel were masked to treatment assignment. Analysis was by intention to treat. The trial is registered with Clinicaltrials.gov, number NCT01110720. 313 participants were randomly assigned to davunetide (n=157) or to placebo (n=156), and 241 (77%) completed the study (118 and […] in the davunetide and placebo groups, respectively). A secondary outcome was brain ventricular volume as measured with boundary shift integral analysis of T1-weighted magnetic resonance imaging (MRI) scans, mostly collected at week 0 and 52. At the same time, selected patients were also subjected to lumbar puncture and assessment of Tau content and Tau hyperphosphorylation in the cerebrospinal fluid (CSF).
To further understand disease progression, sex/age/baseline differences and drug influence, we re-evaluated study results, separating males and females, and assessing the primary and secondary endpoints. In this respect, we further assessed individually the 6 disability domains of the PSPRS, namely: daily activities (by history, seven items with a total maximum score of 24), behavior (mentation, emotional, interference with activity of daily living, maximum score of 16), bulbar (speech and swallowing, maximal score of 8), ocular motor (eye and eyelid activity, 16 points), limb motor (fine motor skills including tremor, 16 points) and gait/midline (gross motor skills, 20 points) https://www.physio-pedia.com/Progressive_Supranuclear_Palsy_Rating_Scale_(PSP-RS).
Statistical considerations: To include the ventricle volumetric measures, the cohort was composed of female and male PSP patients treated with davunetide or placebo (sample sizes for sex-treatment groups at 52 weeks of treatment: 48-55), outcome variables included ventricular volume (will be referred to as volume), PSPRS and SEADL assessed at study initiation and follow up to 52 weeks after twice daily treatment.
Data analysis was performed using Graph Pad Prism 7.0 software (see FIGS. 1 and 4). Other statistical tests and visualizations were made in R version 4.2.1 (2022-06-23) with the base library, ggplot2 and ggplot2 extension packages. Correlation plots statistics (FIGS. 2, 3 and 5) were computed using the standard Pearson method. The volume change (from FIG. 3) is the difference between the baseline and week-52 measurements. PSPRS, SEADL and ventricular volume in figures (FIG. 5) are represented by differences between the baseline and week-52 measurements, as a percentage of the baseline measurement. FIGS. 6 and 7 give the absolute changes overtime, due to the non-normal distribution of most parameters, statistical significance was measured using the Wilcoxon test. Only extreme values (defined as 3*IQR deviation from the penultimate top/bottom quantiles), were removed from the final calculations. There were only 11 observations that were considered extreme and their influence on our results was insignificant. FIG. 8 representing the geriatric depression scale measure (GDS) was prepared using excel.

[2] = test system: subjects suffering from amnestic mild cognitive impairment (aMCI); assay: aMCI clinical trial, CANTAB Delayed Match-to-Sample (DMTS) test, men and women analysed separately; assay type: in vivo, human; settings: for effect of treatment on aMCI symptoms: males, 30 mg/day; for DMTS change vs placebo, Student's t test: men only
Method: The subject's task is to select the pattern that matches the original sample, here depicted after a 12 s interval. Thus, subjects suffering from aMCI were treated with either 5 mg daily or 15 mg twice daily (BID) by intranasal davunetide administration (1 or three puffs of the same strength davunetide solution). Treatment was for 12 weeks and testing was at baseline and every four weeks, including also 4 weeks after cessation of treatment. When analyzing the data, we separated here men and women for the first time as outlined below. […] We further conclude that much higher dose are required, especially in females.

[3] = test system: subjects with schizophrenia; assay: Schizophrenia clinical trial, UCSD Performance-based Skills Assessment (UPSA), analysed separately for males and females; assay type: in vivo, human
Method: Briefly, sixty-three subjects with schizophrenia received davunetide at one of two different doses (5, 30 mg/day) or placebo for 12 weeks in a multicenter, double-blind, parallel-group randomized clinical trial. The MATRICS Consensus Cognitive Battery (MCCB) assessed cognitive effects. The UCSD Performance-based Skills Assessment (UPSA) with maximal score of 100 and the Schizophrenia Cognition Rating Scale (SCoRS) assessed functional capacity. Subjects continued their current antipsychotic treatment during the trial. For UPSA, there was a significant main effect of treatment across study arms (p=0.048). Between-group effect size (d) values were 0.74 and 0.48, favoring the 5 and 30 mg doses, respectively.
Considering the results obtained for PSP and the involvement of ADNP in both diseases, we analyzed the data separately for males and females with 7-16 subjects per group. […] All in all, the 5 mg daily dose was beneficial for women as detected after 6 and 12 weeks of treatment.

Hace1 = assay: Hippocampal RNA sequencing of Adnp mutated (HTR (Tyr)) mice; assay type: in vivo
Description: In this model, gait deficits were accentuated in females, and ameliorated by NAP treatment. We discovered a surprising mirror imaging in NAP peptide (davunetide) brain (hippocampus) action in the treated mice as a dependence on mice sex. […] Hace1 is associated with ataxia and Huntington disease and is also involved in depression and Alzheimer's disease. NAP protection (FIG. 11) further attests to sex-dependent treatments of the diseases associated or mediated with Hace1.

[4] = test system: subjects suffering from amnestic mild cognitive impairment (aMCI); settings: sexes not separated; cited from earlier work
[5] = test system: subjects with schizophrenia; settings: cited from earlier work; for UPSA score vs placebo (Javitt et al.): 5 mg daily dose; for UPSA between-group effect size (d): 12 weeks, men and women mixed (Javitt et al.)
[6] = test system: Adnp mutated (HTR (Tyr)) mice; settings: deficits accentuated in females (Karmon et al.); cited from earlier work
PSP patients [7] = settings: cited from earlier work; for PSP trial outcome, sexes not separated (Boxer et al.): 30 mg twice daily, 52 weeks, whole population
[8] = males, from week 26 on, 30 mg twice daily
[9] = woman cohort, very few individuals, exploratory

CC[C@H](C)[C@H](NC(=O)[C@H](CO)NC(=O)[C@@H](NC(=O)[C@@H]1CCCN1C(=O)[C@H](C)NC(=O)[C@@H](N)CC(N)=O)C(C)C)C(=O)N1CCC[C@H]1C(=O)N[C@@H](CCC(N)=O)C(=O)O [davunetide]
CGIds (Clinical Global Impression of Disease Severity) (PSP patients [1]; davunetide-treated males, P=0.013): deteriorated | adverse effects on all other PSPRS domains (PSP patients [1]; females): no adverse effects | ventricular volume increase correlating with baseline ventricular volume (PSP patients [1]; females, 30 mg twice daily intranasally, 52 weeks): complete protection | PSPRS change vs placebo (PSP patients [1]; females, 52 weeks, 30 mg twice daily): trended toward significant improvement | disease progression in PSPRS mental behavior domain (PSP patients [1]; females, over 52 weeks): almost halted | SEADL change from baseline vs placebo (PSP patients [1]; females, starting at week 39 and continuing on 52, P=0.0187 and P=0.00537): significant protective effect | effect on oculomotor activities (PSPRS domain) (PSP patients [1]; females, week 6, P=0.0127): transient adverse effect | GDS score (geriatric depression) compared to placebo (PSP patients [1]; females, week 52, Wilcoxon, P=0.023): improved significantly | bulbar domain of the PSPRS (dysarthria, dysphagia) vs placebo (PSP patients [1]; females, week 52, P=0.0222): significant protective effect | limb motor skills (PSPRS domain) vs placebo (PSP patients [1]; females, P=0.0838): partially protected | ventricular volume change vs baseline ventricular volume (PSP patients [1]; males, 30 mg twice daily intranasally, 52 weeks): no drug effects | PSPRS change compared to the placebo group (PSP patients [1]; [8]): significant increase in PSPRS | SEADL change compared to the placebo group (PSP patients [1]; [8]): decrease in SEADL | percent of baseline ventricular volume change with age vs placebo (PSP patients [1]; men, 30 mg twice daily intranasally, 52 weeks): No differences | percent of baseline ventricular volume change with age vs placebo (PSP patients [1]; men, 30 mg twice daily intranasally, 52 weeks, listed as NAP peptide): not observed in males | phosphorylated Tau in the cerebrospinal fluid (CSF) compared to placebo (PSP patients [1]; [9]): trends in total Tau and phosphorylated Tau reduction | total Tau in the cerebrospinal fluid (CSF) compared to placebo (PSP patients [1]; [9]): trends in total Tau and phosphorylated Tau reduction | percent of baseline ventricular volume change with age vs placebo (PSP patients [1]; women (older woman patients), 30 mg twice daily intranasally, 52 weeks): significant neuroprotective effect | percent of baseline ventricular volume change with age vs placebo (PSP patients [1]; women (older woman patients), 30 mg twice daily intranasally, 52 weeks, listed as NAP peptide): reduced the increase in the size of brain ventricles | effect of treatment on aMCI symptoms ([2]; listed as NAP): significant improvement | effect of treatment on aMCI symptoms ([2]; listed as NAP peptide): statistically significant effect | DMTS change vs placebo, Student's t test ([2]; test week 8): significant difference | DMTS change vs placebo, Student's t test ([2]; week 4 and 16): trending | UPSA change, average ([3]; men, 5 mg daily): 7.4 points | effect on UPSA ([3]; men, 5 mg daily, especially after 6 weeks): effective | effect on UPSA ([3]; men, 15 mg twice daily (30 mg/day), 12 weeks): significant results | effect on UPSA ([3]; men, 15 mg twice daily (30 mg/day), 12 weeks, listed as NAP): significant improvement | UPSA change, mean ([3]; women, 5 mg daily, 12 weeks): 14.9 points | effect on UPSA ([3]; women, 5 mg daily, after 6 and 12 weeks): beneficial | UPSA improvement ([3]; women, 5 mg daily, after 12 weeks): 15% | effect on UPSA ([3]; women, 15 mg twice daily (30 mg/day), week 12, vs 5 mg/day P=0.002): significantly lower effect | effect on UPSA ([3]; women, 15 mg twice daily (30 mg/day), week 12, vs 5 mg/day P=0.002, listed as NAP): not observed | Hace1 gene/mRNA intron retention event (aberrant alternative splicing) (Hace1; ADNP mutated HTR males, brain hippocampal samples): corrected | Hace1 expression as a consequence of NAP treatment (Hace1; male vs female Adnp mutated mice, hippocampus): sex-specific opposite expression | cognitive score in aMCI (Morimoto et al.) [4]: cognitive score enhancement | UPSA score vs placebo (Javitt et al.) ([5]; sexes mixed): significantly more effective | UPSA score vs placebo (Javitt et al.) ([5]; sexes mixed, listed as NAP): significantly higher | UPSA between-group effect size (d) ([5]; 5 mg dose): 0.74 | UPSA score vs 5 mg daily dose and placebo (Javitt et al.) ([5]; 30 mg (15 mg twice daily), sexes mixed): insignificantly different | UPSA between-group effect size (d) ([5]; 30 mg dose): 0.48 | daily living activities in schizophrenia patients (Javitt et al.) ([5]; sexes mixed): protection of daily living activities | gait deficits [6]: ameliorated | PSP trial outcome, sexes not separated (Boxer et al.) (PSP patients [7]): did not meet its endpoints | PSP trial outcome, sexes not separated (Boxer et al.) (PSP patients [7]; listed as Davunetide): not an effective treatment | safety in the PSP trial (Boxer et al.) (PSP patients [7]; in vivo): showing safety

— patent US20250312408A1, “NAP FOR SEX-SPECIFIC TREATMENT OF DISEASES” (RAMOT AT TEL-AVIV UNIVERSITY LTD., priority 2021, published 2025)
